pIC50: −log10 of the molar value. Values belong to the compound of their own block, whether it stands above or below them.
How the values were obtained:
[1] = tested on: Leishmania infantum; test: Antileishmanial activity against Leishmania infantum promastigotes assessed as reduction in cell viability; type: functional, organism-based
[2] = tested on: Trypanosoma cruzi; test: Antitrypanosomal activity against Trypanosoma cruzi epimastigote assessed as parasite growth inhibition; type: functional, organism-based
[3] = tested on: Trypanosoma cruzi; test: Antitrypanosomal activity against bloodstream Trypanosoma cruzi Y strain trypomastigotes assessed as parasite growth inhibition incubated for 24 hrs by light microscopic analysis; type: functional, organism-based
[4] = tested on: Trypanosoma cruzi; test: Antitrypanosomal activity against Trypanosoma cruzi arequipa strain amastigotes assessed as parasite growth inhibition incubated for 48 hrs by resazurin staining based analysis; type: functional, organism-based
[5] = tested on: Trypanosoma cruzi; test: Antitrypanosomal activity against Trypanosoma cruzi arequipa strain trypomastigotes assessed as parasite growth inhibition incubated for 48 hrs by resazurin staining based analysis; type: functional, organism-based
[6] = tested on: Trypanosoma cruzi; test: Antitrypanosomal activity against Trypanosoma cruzi arequipa strain epimastigotes assessed as parasite growth inhibition incubated for 48 hrs by resazurin staining based analysis; type: functional, organism-based
[7] = tested on: Leishmania infantum; test: Antileishmanial activity against Leishmania infantum MHOM/BR/74/PP75 strain promastigotes assessed as reduction in cell viability incubated for 48 hrs by MTT assay; type: functional, organism-based; conditions: MHOM/BR/74/PP75, 48 h
[8] = tested on: Leishmania braziliensis; test: Antileishmanial activity against Leishmania braziliensis MHOM/BR/75/M2903 strain promastigotes assessed as reduction in cell viability incubated for 48 hrs by MTT assay; type: functional, organism-based; conditions: MHOM/BR/75/M2903, 48 h
[9] = Selectivity index, ratio of CC50 for human WI26VA4 cells to ratio of IC50 for antileishmanial activity against Leishmania braziliensis MHOM/BR/75/M2903 promastigote; type: toxicity; conditions: read-out: Ratio CC50/IC50
[10] = Selectivity index, ratio of CC50 for human WI26VA4 cells to ratio of IC50 for antileishmanial activity against Leishmania infantum MHOM/BR/74/PP75 promastigote; type: toxicity; conditions: read-out: Ratio CC50/IC50
[11] = tested on: Leishmania major; test: Antileishmanial activity against Leishmania major promastigote assessed as inhibition of parasite growth; type: functional, organism-based
[12] = tested on: Leishmania infantum; test: Antileishmanial activity against Leishmania infantum amastigotes assessed as inhibition of parasite growth; type: functional, organism-based
[13] = tested on: Trypanosoma cruzi; test: Antitrypanosomal activity against bloodstream Trypanosoma cruzi INC-5 strain trypomastigotes assessed as parasite growth inhibition incubated for 24 hrs by microscopic analysis; type: functional
[14] = tested on: Trypanosoma cruzi; test: Antitrypanosomal activity against bloodstream Trypanosoma cruzi NINOA strain trypomastigotes assessed as parasite growth inhibition incubated for 24 hrs by microscopic analysis; type: functional
[15] = tested on: Leishmania amazonensis; test: Antileishmanial activity against Leishmania amazonensis promastigotes assessed as inhibition of parasite growth; type: functional, organism-based
[16] = tested on: Trypanosoma cruzi; test: Antitrypanosomal activity against Trypanosoma cruzi epimastigote Dm28c strain assessed as parasite growth inhibition; type: functional, organism-based
[17] = Selectivity index, ratio of CC50 for cytotoxicity against mouse RAW264.7 cells to IC50 for antitrypanosomal activity against Trypanosoma cruzi epimastigote; type: toxicity, cell-based; conditions: read-out: Ratio CC50/IC50
[18] = tested on: Trypanosoma cruzi; test: Antitrypanosomal activity against Trypanosoma cruzi amastigote assessed as parasite growth inhibition; type: functional, organism-based
[19] = Selectivity index, ratio of CC50 for cytotoxicity against mouse RAW264.7 cells to IC50 for antitrypanosomal activity against Trypanosoma cruzi amastigote; type: toxicity, cell-based; conditions: read-out: Ratio CC50/IC50
[20] = Selectivity index, ratio of CC50 for mouse J774.A1 cells to ratio of IC50 for antitrypanosomal activity against bloodstream Trypanosoma cruzi INC-5 strain trypomastigotes; type: toxicity; conditions: read-out: Ratio CC50/IC50
[21] = Selectivity index, ratio of CC50 for mouse J774.A1 cells to ratio of IC50 for antitrypanosomal activity against bloodstream Trypanosoma cruzi NINOA strain trypomastigotes; type: toxicity; conditions: read-out: Ratio CC50/IC50

Structure (SMILES): C/C(=N\Nc1nc(-c2ccc(F)cc2)cs1)c1ccccn1
- pIC50 [1]: 6.38

- pIC50 [2]: 4.31
Structure (SMILES): NC(=S)N/C=N/c1c(C(F)(F)F)nn(-c2ccccc2)c1-c1ccc(Cl)cc1

Structure (SMILES): CC1(C)OC2=C(CC1[Se]c1cccs1)C(=O)C(=O)c1ccccc12 (centres undefined)
- pIC50 [3]: 4.20

Structure (SMILES): Cc1ccc(C[Se]C#N)cc1
- pIC50 [4]: 5.51
- pIC50 [5]: 5.35
- pIC50 [6]: 5.52

Structure (SMILES): O=C1NC(=O)/C(=C/c2ccccc2Cl)S1
- pIC50 [7]: 4.16
- pIC50 [8]: 4.15
- selectivity ratio [9]: 0.86
- selectivity ratio [10]: 0.89

Structure (SMILES): N#Cc1ccc(C[Se][Se]Cc2ccc(C#N)cc2)cc1
- pIC50 [4]: 6.30
- pIC50 [5]: 6.05
- pIC50 [6]: 5.89

Structure (SMILES): Oc1ccc(-c2nnc(-c3ccc4ncccc4c3)s2)c(O)c1
- pIC50 [11]: 6.15

Structure (SMILES): O=C(Nc1ccc([Se][Se]c2ccc(NC(=O)c3ccc(C(F)(F)F)cc3)cc2)cc1)c1ccc(C(F)(F)F)cc1
- pIC50 [4]: 5.27
- pIC50 [5]: 5.62

Structure (SMILES): N#C[Se]Cc1cccc(C#N)c1
- pIC50 [4]: 6.10
- pIC50 [5]: 6.05
- pIC50 [6]: 6.00

- pIC50 [2]: 4.16
Structure (SMILES): NC(=S)N/C=N/c1c(C(F)(F)F)nn(-c2ccccc2)c1-c1ccc(F)cc1

Structure (SMILES): O=C1C(=O)c2ccccc2C2=C1CC(C[Se]c1ccc(Cl)cc1)O2 (centres undefined)
- pIC50 [3]: 4.23

Structure (SMILES): COP(=O)(Nc1ccc([Se][Se]c2ccc(NP(=O)(OC)OC)cc2)cc1)OC
- pIC50 [12]: 6.48

Structure (SMILES): Fc1cccc(CSc2nc3ccccc3s2)c1
- LC50 [13]: > 350 µM
- LC50 [14]: > 350 µM

Structure (SMILES): Cc1ccc(S(=O)(=O)Nc2ccc([Se][Se]c3ccc(NS(=O)(=O)c4ccc(C)cc4)cc3)cc2)cc1
- pIC50 [4]: 5.38
- pIC50 [5]: 5.43
- pIC50 [6]: 5.29

Structure (SMILES): O=C1NC(=O)/C(=C/c2ccc(Cl)cc2Cl)S1
- pIC50 [7]: 4.39
- pIC50 [8]: 4.35
- selectivity ratio [9]: 0.76
- selectivity ratio [10]: 0.82

Structure (SMILES): O=C1c2cccc3cccc(c23)C(=O)C1CCCCCCN=C=[Se]
- pIC50 [11]: 7.52
- pIC50 [15]: 6.70

Structure (SMILES): NS(=O)(=O)c1ccc(NC(=[Se])NC(=O)c2ccccc2)cc1
- pIC50 [12]: 5.28

Structure (SMILES): NS(=O)(=O)c1ccc(C[Te]c2ccc3ccccc3c2)cc1
- pIC50 [12]: 5.23

Structure (SMILES): O=C(Nc1ccc([Se][Se]c2ccc(NC(=O)c3ccc([N+](=O)[O-])cc3)cc2)cc1)c1ccc([N+](=O)[O-])cc1
- pIC50 [4]: 4.31
- pIC50 [5]: 4.45

- pIC50 [16]: 5.13
- pIC50 [18]: 5.45
Structure (SMILES): NS(=O)(=O)c1ccc(CCNC(=O)Cc2ccc(Br)cc2)cc1
- selectivity ratio [17]: 0.44
- selectivity ratio [19]: 0.44

- pIC50 [2]: 4.34
Structure (SMILES): NC(=S)N/C=N/c1c(C(F)(F)F)nn(-c2ccccc2)c1-c1ccc([N+](=O)[O-])cc1

Structure (SMILES): NS(=O)(=O)c1ccc(NC(=[Se])NC(=O)c2ccc3c(c2)OCO3)cc1
- pIC50 [12]: 5.28

Structure (SMILES): Fc1c(F)c(F)c(CSc2nc3ccccc3s2)c(F)c1F
- selectivity ratio [20]: 1.34
- LC50 [13]: 185 µM
- selectivity ratio [21]: 1.69
- LC50 [14]: 147 µM

Structure (SMILES): Fc1cccc(F)c1CSc1nc2ccccc2s1
- selectivity ratio [20]: 1.91
- LC50 [13]: 260 µM
- selectivity ratio [21]: 4.48
- LC50 [14]: 110 µM

Structure (SMILES): O=C1NC(=O)/C(=C/c2ccc(Cl)c(Cl)c2)S1
- pIC50 [7]: 4.63
- pIC50 [8]: 4.18
- selectivity ratio [9]: 0.66
- selectivity ratio [10]: 1.85

Structure (SMILES): O=C(Nc1ccc([Se][Se]c2ccc(NC(=O)c3ccco3)cc2)cc1)c1ccco1
- pIC50 [4]: 5.49
- pIC50 [5]: 5.74

- pIC50 [3]: 4.24
Structure (SMILES): CC1(C)OC2=C(CC1[Se]c1cccc3ccccc13)C(=O)C(=O)c1ccccc12 (centres undefined)

Structure (SMILES): Brc1ccc(-c2csc(N/N=C/c3ccccn3)n2)cc1
- pIC50 [1]: 5.51

Structure (SMILES): CCOP(=O)(Nc1ccc([Se][Se]c2ccc(NP(=O)(OCC)OCC)cc2)cc1)OCC
- pIC50 [12]: 6.77

- pIC50 [16]: 5.17
- pIC50 [18]: 5.49
Structure (SMILES): COc1ccc(CC(=O)Nc2nnc(S(N)(=O)=O)s2)cc1
- selectivity ratio [17]: 1
- selectivity ratio [19]: 1
